The record followed here is the Deep4Chem optical property database.

This data set is described as follows: solvent given as SMILES.

On to `CCOC(=O)c1ccc(C2=Cc3cc4ccccc4cc3P2(=O)c2ccccc2)cc1` (centres undefined), for which the absorption maximum (in ClCCl) is recorded as 390 nm.
Turning to `C(=C\c1ccc(N(c2ccccc2)c2ccccc2)cc1)/c1ccc(-c2ccc(/C=C/c3ccc(N(c4ccccc4)c4ccccc4)cc3)cc2)cc1`, the absorption maximum (in ClCCl) is on record as 398 nm.
The compound `COc1ccc(-n2nc(C#N)c(N3CCCC3)n2)cc1` had an absorption maximum (in CC#N) of 340 nm; an absorption maximum (in CCCCCC) of 335 nm; an absorption maximum (in CCO) of 339 nm; an absorption maximum (in CN(C)C=O) of 343 nm; an absorption maximum (in CO) of 340 nm; an absorption maximum (in ClC(Cl)Cl) of 342 nm.
For the compound `O=C1c2ccccc2NC(c2ccccc2)N1Cc1ccccc1` (centres undefined), the absorption maximum is listed as 337 nm (in CC#N); 325 nm (in CCCCCCCCCCCCCCCC); 345 nm (in CO); 336 nm (in ClC(Cl)Cl); 334 nm (in c1ccccc1).
Consider `C[N+]1=c2ccc3c(c2C(C)(C)CC1)Oc1cc2c(cc1C=3c1ccccc1C(=O)O)C(c1ccccc1C(=O)O)=c1ccc3c(c1O2)C(C)(C)CC[N+]=3C`, for which the absorption maximum (in ClC(Cl)Cl) is on record as 617 nm.
In turn, `Cc1ccc(N2C(c3ccccc3N)=NC(c3ccccc3)C2c2ccccc2)cc1` (centres undefined) returned an absorption maximum (in Cc1ccccc1) of 282 nm.
In turn, `CCCCOc1c(OC)cc2cc(OC)c(OCCCC)c3c4c(OCCCC)c(OC)cc5cc(OC)c(OCCCC)c(c1c23)c54` yielded an absorption maximum (in ClCCl) of 451 nm.
As for `COC(=O)c1ccc(-c2ccc3c(c2)C(=O)c2cc(-c4ccc(C(=O)OC)cc4)ccc2-3)cc1`, the absorption maximum (in C1CCOC1) turned out to be 342 nm.
`CC(=O)OCCN1C(=O)c2cccc3c(Oc4ccc(C=O)cc4)ccc(c23)C1=O` displayed an absorption maximum (in ClC(Cl)Cl) of 353 nm.
As to `CC1=N/C(=C\c2ccncc2)C(=O)N1C`, the absorption maximum came to 357 nm (in C1COCCO1); 356 nm (in CC#N); 351 nm (in CCO); 353 nm (in CCOC(C)=O); 347 nm (in O).
For the compound `c1ccc(-c2nc(-c3ccccc3)nc(-c3ccc(-n4c5ccccc5c5c4c4ccccc4n5-c4ccccc4)cc3)n2)cc1`, the absorption maximum (in Cc1ccccc1) stood at 398 nm.
As to `CC1(C)C(/C=C/C2=C(Oc3ccc(CCN=C=S)cc3I)C(=C/C=C3/N(CCCS(=O)(=O)[O-])c4ccccc4C3(C)C)/CCC2)=[N+](CCCS(=O)(=O)[O-])c2ccccc21`, the absorption maximum (in CO) is listed as 766 nm.
`CC1(C)OB(c2cc3ccc4cc(B5OC(C)(C)C(C)(C)O5)cc5ccc(c2)c3c45)OC1(C)C`: where the note is “in Cc1ccccc1”, the absorption maximum is given as 398 nm.
For `CCCN1c2ccccc2Sc2cc(/C=C\c3cc(=O)oc4cc(O)ccc34)ccc21`, where the note is “in ClC(Cl)Cl”, the absorption maximum was determined as 422 nm.
`CN(C)c1ccc(/C=C(\C#N)c2nc3ccccc3s2)cc1`: the absorption maximum is, setting by setting: (in C1CCCCC1) 430 nm; (in CO) 450 nm.
With `C(=C\c1ncnc2ccccc12)/c1ccc(-c2ccc(N(c3ccccc3)c3ccccc3)cc2)cc1`, under “in ClCCl”, the absorption maximum turned out to be 402 nm.
`c1ccc(N(c2ccccc2)c2ccc(-c3ncc(-c4ccncc4)s3)cc2)cc1` registered an absorption maximum (in CO) of 397 nm.
Turning to `O=C(Cc1ccccc1)OCc1ccc2c3cccc4cccc(c5cccc1c52)c43`, the absorption maximum (in CCO) was 438 nm.
In the case of `CCCCN1C(=S)c2cccc3c(N(C)C)ccc(c23)C1=S`, the absorption maximum amounted to 571 nm (in CC#N), 588 nm (in CS(C)=O) and 536 nm (in Cc1ccccc1).
`CN(C)c1cc(-c2ccc(C#Cc3ccccc3)cc2)cc2ccccc12`: the absorption maximum is given as 302.58 nm (in CC#N), 300.29 nm (in CCO) and 304 nm (in ClCCl).
Take `N#C/C(=C\c1ccc(Cl)cc1)c1nc2ccccc2s1`: the absorption maximum reads like this: (in C1CCCCC1) 350 nm; (in CO) 350 nm.
Turning to `CCCCn1c(-c2ccc(-c3ccc(-c4ccc(-c5n(CCCC)c6ccccc6[n+]5CCCC)cc4)cc3)cc2)[n+](CCCC)c2ccccc21`, the absorption maximum (in O) amounted to 303 nm.
`c1ccc(N(c2ccccc2)c2ccc(-c3ccc4c(c3)C3(c5ccccc5Oc5ccccc53)c3cc(-c5ccc(N(c6ccccc6)c6ccccc6)cc5)ccc3-4)cc2)cc1` registered an absorption maximum (in ClCCl) of 372 nm.
For the setting “in CC#N”, `COC(=O)c1c(NC(C)(C)C)oc(-c2ccccc2)c1C(=O)OC` returned an absorption maximum of 334 nm.
In turn, `Cc1ccc2nc(-c3cc(-c4nc5ccc(C)cc5[nH]4)cc(-c4nc5ccc(C)cc5[nH]4)c3)[nH]c2c1` registered an absorption maximum (in CS(C)=O) of 322.8 nm.
In the case of `Cc1ccc2nc(/C=C/c3ccc(N(C)C)cc3)c(-c3ccccc3)nc2c1`, the absorption maximum (in C1COCCO1) worked out at 430 nm, the absorption maximum (in CC#N) is recorded as 433 nm and the absorption maximum (in ClCCl) is reported as 436 nm.
Regarding `COc1ccc(-c2cc3c(ccc4sc5ccc6sccc6c5c43)s2)cc1`, the absorption maximum (in ClCCl) is reported as 357 nm.
`Cc1ccc(C2=C3C=CC([Te]c4ccccc4)=[N+]3[B-](F)(F)n3c([Te]c4ccccc4)ccc32)cc1`: the absorption maximum (in C1CCOC1) worked out at 620 nm.
Regarding `O=Cc1ccc(C#CC(C#Cc2ccc(C=O)s2)=Cc2ccc(C=C(C#Cc3ccc(C=O)s3)C#Cc3ccc(C=O)s3)s2)s1`, where the note is “in ClC(Cl)Cl”, the absorption maximum stood at 524 nm.
`c1csc(-c2ccc(-c3ccc(-c4cccs4)s3)s2)c1`: the absorption maximum (in CCCCCCCCCCCCCC) was 391 nm and the absorption maximum (in ClCCl) is recorded as 393 nm.
As to `c1ccc2c(c1)oc1nc3oc4ccc(-n5c6ccccc6c6cc(-n7c8ccccc8c8ccccc87)ccc65)cc4c3cc12`, the absorption maximum (in ClC(Cl)Cl) was determined as 354 nm.
Take `CCCC1(CCC)c2cc(-c3ccc4c(c3)C(CCC)(CCC)c3cc(C(C)(C)CC)ccc3-4)ccc2-c2ccc(-c3ccc4c(c3)C(CCC)(CCC)c3cc(C(C)(C)CC)ccc3-4)cc21`: the absorption maximum (in C1CCCCC1) is 351 nm.
For the setting “in ClCCl”, `CC(C)(C)c1ccc2c(c1)c1cc(C(C)(C)C)ccc1n2-c1ccc(C#Cc2ccc3c4ccc(C#Cc5ccc(C=O)cc5)cc4n(-c4ccc(C(F)(F)F)cc4)c3c2)cc1` came in with an absorption maximum of 377 nm.
Consider `O=C1c2ccccc2C2=Cc3cc4c(cc3B(O)N12)OCO4`, for which the absorption maximum stood at 392 nm (in CC#N), 394 nm (in CO), 396 nm (in CS(C)=O) and 397 nm (in ClC(Cl)Cl).
`Cc1ccc(-c2ccc(-c3ccc(-c4ccc(-c5ccc(C)cc5)cc4)c(/C(=C(/c4ccccc4)c4cc(-c5ccc(-c6ccc(C)cc6)cc5)ccc4-c4ccc(-c5ccc(C)cc5)cc4)c4ccccc4)c3)cc2)cc1`: the absorption maximum (in C1CCOC1) is 308 nm.
With `Cc1ccccc1-c1c2ccc(=[N+]3CCOCC3)cc-2oc2cc(N3CCOCC3)ccc12`, the absorption maximum is, setting by setting: (in CCO) 556 nm; (in ClCCl) 554 nm.
In turn, `COc1ccc2c3c(c4ccc(OC)cc4c2c1)C(C)(C)c1cc(-c2ccccc2)ccc1-3` registered an absorption maximum (in C1CCCCC1) of 389 nm.
`CN(C)c1ccc(C2=Cc3ccc4ccccc4[n+]3[B-](F)(F)O2)cc1` had an absorption maximum (in C1CCOC1) of 472 nm; an absorption maximum (in C1COCCO1) of 472 nm; an absorption maximum (in CC1CCCCC1) of 473 nm; an absorption maximum (in CC#N) of 468 nm; an absorption maximum (in CCOC(C)=O) of 468 nm; an absorption maximum (in CCOCC) of 467 nm. This compound also came in with an absorption maximum (in CN(C)C=O) of 474 nm, an absorption maximum (in CO) of 468 nm, an absorption maximum (in COC(C)=O) of 468 nm and an absorption maximum (in ClC(Cl)Cl) of 477 nm.
On to `Brc1ccc(N/C=C/C=[NH+]c2ccc(Br)cc2)cc1`, for which, for the setting “in CS(C)=O”, the absorption maximum stood at 386 nm.
Consider `CC[n+]1nc2cc3c4c(c2c2cc(F)ccc21)CCCN4CCC3`, for which the absorption maximum (in O) amounted to 494 nm.
Turning to `CCCCN1c2ccc(/C=C/c3cc(=O)oc4cc(C)ccc34)cc2Sc2cc(/C=C/c3cc(=O)oc4cc(C)ccc34)ccc21`, the absorption maximum (in ClC(Cl)Cl) is 441 nm.
For `COc1c(-c2c(OC)c3cccc4ccc5oc(=O)cc2c5c43)c2cc(=O)oc3ccc4cccc1c4c32`, the absorption maximum (in CC1CCCO1) came to 476 nm.
`COc1ccc2c(-c3nc(-c4ccccc4)no3)cc(=O)oc2c1`: the absorption maximum (in CCO) amounted to 344 nm and the absorption maximum (in ClC(Cl)Cl) worked out at 345 nm.
For the compound `C(#Cc1ccc(-n2c3ccccc3c3ccccc32)cc1)c1ccccc1`, the absorption maximum reads like this: (in CC#N) 324 nm; (in CCCCC) 323 nm; (in CO) 322 nm; (in Cc1ccccc1) 329 nm; (in ClC(Cl)Cl) 326 nm; (in ClCCl) 326 nm.
Turning to `CCCCCCCCC1(CCCCCCCC)c2cc(C=O)ccc2-c2ccc(/C=C/c3ccc(N(c4ccccc4)c4ccccc4)cc3)cc21`, the absorption maximum by setting is: (in C1CCOC1) 406 nm; (in C1COCCO1) 411 nm; (in CC#N) 406 nm; (in CC(C)=O) 409 nm; (in CCCCCC) 405 nm; (in CCOC(C)=O) 409 nm. Moreover, the absorption maximum is 410 nm (in CN(C)C=O); 408 nm (in CS(C)=O); 411 nm (in Cc1ccccc1); 409 nm (in ClC(Cl)Cl); 411 nm (in ClCCl).
In the case of `CCOC(=O)c1c(-c2cc3ccccc3oc2=O)nn(-c2ccc(Cl)cc2)c1C(=O)OCC`, the absorption maximum (in ClCCl) amounted to 323 nm.
Compound `C(/C=C/c1ccc(N(c2ccccc2)c2ccccc2)cc1)=C\c1ccncc1` displayed an absorption maximum (in C1COCCO1) of 395 nm, an absorption maximum (in CC#N) of 396 nm, an absorption maximum (in CCCCCCC) of 393 nm and an absorption maximum (in CO) of 399 nm.
On to `O=C([O-])c1ccc(C2=c3cc4c5c(c3Oc3c2cc2c6c3CCCN6CCC2)CCC[N+]=5CCC4)c(C(=O)[O-])c1`, for which the absorption maximum was 573 nm (in CCO) and 574 nm (in O).
As to `CCOC(=O)c1c(-c2cc3ccc(OCC=C(C)C)cc3oc2=O)nn(-c2ccccc2)c1C(=O)OCC`, the absorption maximum (in ClCCl) turned out to be 341 nm.
`N#C/C(=C\c1ccc(C#N)cc1)c1nc(-c2ccccc2)cs1`: the absorption maximum by setting is: (in CC#N) 370 nm; (in CCO) 375 nm; (in CN(C)C=O) 376 nm; (in Cc1ccccc1) 380 nm; (in ClCCl) 375 nm.
